Columns and labels:
Assay type in all cases: cell-based
[1] = tested on: MM1S cells; assay: MTT cell proliferation assay, MM1S cells; details: Homo sapiens, MM1.S, MM1S multiple myeloma cells, approximately 64-72 hours, 1 nM to 30 μM
Procedure: (§1) The MTT cell proliferation assay was used to study the cytotoxic properties of the compounds. The assay was performed according to the method described by Roche Molecular Biochemicals, with minor modifications. The assay is based on the cleavage of the tetrazolium salt, MTT, in the presence of an electron-coupling reagent. The water-insoluble formazan salt produced must be solubilized in an additional step. Cells grown in a 96-well tissue culture plate were incubated with the MTT solution for approximately 4 hours. After this incubation period, a water-insoluble formazan dye formed. After solubilization, the formazan dye was quantitated using a scanning multi-well spectrophotometer (ELISA reader). […] The cells were seeded at 5,000-10,000 cells in each well of 96-well plate in 100 μL of fresh culture medium and were allowed to attach overnight. The stock solutions of the compounds were diluted in 100 μL cell culture medium to obtain eight concentrations of each test compound, ranging from 1 nM to 30 μM. […] All optical densities were measured at 490 nm using a Vmax Kinetic Microplate Reader (Molecular Devices). In most cases, the assay was performed in duplicate and the results were presented as a mean percent inhibition to the negative control±SE. The following formula was used to calculate the percent of inhibition: Inhibition (%)=(1−(ODo/OD))×100.
(§2) The compounds were tested against Z138, MM1S and 3T3 cells. The Z138 cell line is a mature B-cell acute lymphoblastic leukemia cell line derived from a patient with chronic lymphocytic leukemia. The MM1S cell line was established from the peripheral blood of a human multiple myeloma patient. 3T3 cells are standard fibroblast cells; they were originally isolated from Swiss mouse embryo tissue.

[2] = tested on: Z138 cells; assay: MTT cell proliferation assay, Z138 cells; details: Homo sapiens, Z-138, approximately 64-72 hours, 1 nM to 30 μM
Procedure: as §1, §2

[3] = tested on: 3T3 cells; assay: MTT cell proliferation assay, 3T3 cells; details: Mus musculus, NIH3T3, 3T3 fibroblast cells, approximately 64-72 hours, 1 nM to 30 μM
Procedure: as §1, §2

Structure (SMILES)	IC50 [1]	IC50 [2]	IC50 [3]
N#Cc1ncc(/C(=C\c2ccnc(-c3cc(C(F)(F)F)cc(C(F)(F)F)c3)n2)C(N)=O)cn1 [Compound 125, (E)-3-(2-(3,5-bis(trifluoromethyl)phenyl)pyrimidin-4-yl)-2-(2-cyanopyrimidin-5-yl)acrylamide]	< 0.1 µM	< 0.1 µM	> 30 µM
NC(=O)/C(=C/c1ccnc(-c2cc(C(F)(F)F)cc(C(F)(F)F)c2)n1)c1ccc(S(=O)(=O)N2CC(F)C2)cc1 [Compound 126, (E)-3-(2-(3,5-bis(trifluoromethyl)phenyl)pyrimidin-4-yl)-2-(4-((3-fluoroazetidin-1-yl)sulfonyl)phenyl)acrylamide]	> 30 µM	> 30 µM	> 30 µM
CS(=O)(=O)c1ccc(/C(=C\c2ccnc(-c3cc(C(F)(F)F)cc(C(F)(F)F)c3)n2)C(N)=O)cc1 [Compound 127, (E)-3-(2-(3,5-bis(trifluoromethyl)phenyl)pyrimidin-4-yl)-2-(4-(methylsulfonyl)phenyl)acrylamide]	> 30 µM	> 30 µM	> 30 µM
NC(=O)/C(=C/c1ccnc(-c2cc(C(F)(F)F)cc(C(F)(F)F)c2)n1)c1ccc(S(=O)(=O)NC2CC2)cc1 [Compound 128, (E)-3-(2-(3,5-bis(trifluoromethyl)phenyl)pyrimidin-4-yl)-2-(4-(N-cyclopropylsulfamoyl)phenyl)acrylamide]	5 to 30 µM	5 to 30 µM	> 30 µM
NC(=O)/C(=C/c1ccnc(-c2cc(C(F)(F)F)cc(C(F)(F)F)c2)n1)c1cccc(S(=O)(=O)N2CCOCC2)c1 [Compound 129, (E)-3-(2-(3,5-bis(trifluoromethyl)phenyl)pyrimidin-4-yl)-2-(3-(morpholinosulfonyl)phenyl)acrylamide]	> 30 µM	> 30 µM	> 30 µM
NC(=O)/C(=C/c1ccnc(-c2cc(C(F)(F)F)cc(C(F)(F)F)c2)n1)c1ccc(S(=O)(=O)N2CC(F)(F)C2)cc1 [Compound 130, (E)-3-(2-(3,5-bis(trifluoromethyl)phenyl)pyrimidin-4-yl)-2-(4-((3,3-difluoroazetidin-1-yl)sulfonyl)phenyl)acrylamide]	5 to 30 µM	> 30 µM	> 30 µM
NC(=O)/C(=C/c1ccnc(-c2cc(C(F)(F)F)cc(C(F)(F)F)c2)n1)c1cccc(S(=O)(=O)N2CCC(F)CC2)c1 [Compound 131, (E)-3-(2-(3,5-bis(trifluoromethyl)phenyl)pyrimidin-4-yl)-2-(3-((4-fluoropiperidin-1-yl)sulfonyl)phenyl)acrylamide]	> 30 µM	> 30 µM	> 30 µM
NC(=O)/C(=C/c1ccnc(-c2cc(C(F)(F)F)cc(C(F)(F)F)c2)n1)c1ccc(F)cc1F [Compound 132, (E)-3-(2-(3,5-bis(trifluoromethyl)phenyl)pyrimidin-4-yl)-2-(2,4-difluorophenyl)acrylamide]	> 30 µM	> 30 µM	> 30 µM
NC(=O)/C(=C/c1ccnc(-c2cc(C(F)(F)F)cc(C(F)(F)F)c2)n1)c1ccc(OC(F)(F)F)cc1 [Compound 134, (E)-3-(2-(3,5-bis(trifluoromethyl)phenyl)pyrimidin-4-yl)-2-(4-(trifluoromethoxy)phenyl)acrylamide]	> 30 µM	> 30 µM	> 30 µM
N#Cc1ccc(/C(=C\c2ccnc(-c3cc(C(F)(F)F)cc(C(F)(F)F)c3)n2)C(N)=O)s1 [Compound 135, (Z)-3-(2-(3,5-bis(trifluoromethyl)phenyl)pyrimidin-4-yl)-2-(5-cyanothiophen-2-yl)acrylamide]	< 0.1 µM	0.1 to 5 µM	5 to 30 µM
NC(=O)/C(=C/c1ccnc(-c2cc(C(F)(F)F)cc(C(F)(F)F)c2)n1)c1cc2ccccc2o1 [Compound 136, (E)-2-(benzofuran-2-yl)-3-(2-(3,5-bis(trifluoromethyl)phenyl)pyrimidin-4-yl)acrylamide]	0.1 to 5 µM	0.1 to 5 µM	5 to 30 µM
NC(=O)/C(=C/c1ccnc(-c2cc(C(F)(F)F)cc(C(F)(F)F)c2)n1)c1cc2ccccc2s1 [Compound 137, (Z)-2-(benzo[b]thiophen-2-yl)-3-(2-(3,5-bis(trifluoromethyl)phenyl)pyrimidin-4-yl)acrylamide]	0.1 to 5 µM	0.1 to 5 µM	> 30 µM
NC(=O)/C(=C/c1ccnc(-c2cc(C(F)(F)F)cc(C(F)(F)F)c2)n1)c1ccc2cn[nH]c2c1 [Compound 140, (E)-3-(2-(3,5-bis(trifluoromethyl)phenyl)pyrimidin-4-yl)-2-(1H-indazol-6-yl)acrylamide]	> 30 µM	0.1 to 5 µM	> 30 µM
NC(=O)/C(=C/c1ccnc(-c2cc(C(F)(F)F)cc(C(F)(F)F)c2)n1)c1cccc(Cl)c1Cl [Compound 141, (E)-3-(2-(3,5-bis(trifluoromethyl)phenyl)pyrimidin-4-yl)-2-(2,3-dichlorophenyl)acrylamide]	> 30 µM	> 30 µM	> 30 µM
NC(=O)/C(=C/c1ccnc(-c2cc(C(F)(F)F)cc(C(F)(F)F)c2)n1)c1ccc(-c2cccnc2)cc1 [Compound 142, (E)-3-(2-(3,5-bis(trifluoromethyl)phenyl)pyrimidin-4-yl)-2-(4-(pyridin-3-yl)phenyl)acrylamide]	> 30 µM	> 30 µM	> 30 µM
NC(=O)/C(=C/c1ccnc(-c2cc(C(F)(F)F)cc(C(F)(F)F)c2)n1)c1ccsc1Cl [Compound 143, (E)-3-(2-(3,5-bis(trifluoromethyl)phenyl)pyrimidin-4-yl)-2-(2-chlorothiophen-3-yl)acrylamide]	> 30 µM	> 30 µM	> 30 µM
CS(=O)(=O)Nc1cccc(/C(=C\c2ccnc(-c3cc(C(F)(F)F)cc(C(F)(F)F)c3)n2)C(N)=O)c1 [Compound 144, (E)-3-(2-(3,5-bis(trifluoromethyl)phenyl)pyrimidin-4-yl)-2-(3-(methylsulfonamido)phenyl)acrylamide]	> 30 µM	> 30 µM	> 30 µM
NC(=O)/C(=C/c1ccnc(-c2cc(C(F)(F)F)cc(C(F)(F)F)c2)n1)c1cccc(S(=O)(=O)N2CC(F)C2)c1 [Compound 145, (E)-3-(2-(3,5-bis(trifluoromethyl)phenyl)pyrimidin-4-yl)-2-(3-((3-fluoroazetidin-1-yl)sulfonyl)phenyl)acrylamide]	> 30 µM	> 30 µM	> 30 µM
CN1CCN(S(=O)(=O)c2cccc(/C(=C\c3ccnc(-c4cc(C(F)(F)F)cc(C(F)(F)F)c4)n3)C(N)=O)c2)CC1 [Compound 146, (E)-3-(2-(3,5-bis(trifluoromethyl)phenyl)pyrimidin-4-yl)-2-(3-((4-methylpiperazin-1-yl)sulfonyl)phenyl)acrylamide]	> 30 µM	> 30 µM	> 30 µM
NC(=O)/C(=C/c1ccnc(-c2cc(C(F)(F)F)cc(C(F)(F)F)c2)n1)c1cncc(Cl)c1 [Compound 147, (E)-3-(2-(3,5-bis(trifluoromethyl)phenyl)pyrimidin-4-yl)-2-(5-chloropyridin-3-yl)acrylamide]	< 0.1 µM	0.1 to 5 µM	> 30 µM
NC(=O)/C(=C/c1ccnc(-c2cc(C(F)(F)F)cc(C(F)(F)F)c2)n1)c1ccncc1 [Compound 148, (E)-3-(2-(3,5-bis(trifluoromethyl)phenyl)pyrimidin-4-yl)-2-(pyridin-4-yl)acrylamide]	0.1 to 5 µM	0.1 to 5 µM	> 30 µM
NC(=O)/C(=C/c1ccnc(-c2cc(C(F)(F)F)cc(C(F)(F)F)c2)n1)c1cnc(Cl)nc1 [Compound 149, (E)-3-(2-(3,5-bis(trifluoromethyl)phenyl)pyrimidin-4-yl)-2-(2-chloropyrimidin-5-yl)acrylamide]	0.1 to 5 µM	0.1 to 5 µM	> 30 µM
NC(=O)/C(=C/c1ccnc(-c2cc(C(F)(F)F)cc(C(F)(F)F)c2)n1)c1cccc(F)n1 [Compound 150, (E)-3-(2-(3,5-bis(trifluoromethyl)phenyl)pyrimidin-4-yl)-2-(6-fluoropyridin-2-yl)acrylamide]	0.1 to 5 µM	0.1 to 5 µM	> 30 µM
NC(=O)/C(=C/c1ccnc(-c2cc(C(F)(F)F)cc(C(F)(F)F)c2)n1)c1ccc(S(=O)(=O)N2CCOCC2)cc1 [Compound 151, (E)-3-(2-(3,5-bis(trifluoromethyl)phenyl)pyrimidin-4-yl)-2-(4-(morpholinosulfonyl)phenyl)acrylamide]	0.1 to 5 µM	5 to 30 µM	> 30 µM
NC(=O)/C(=C/c1ccnc(-c2cc(C(F)(F)F)cc(C(F)(F)F)c2)n1)c1cc(F)nc(F)c1 [Compound 152, (E)-3-(2-(3,5-bis(trifluoromethyl)phenyl)pyrimidin-4-yl)-2-(2,6-difluoropyridin-4-yl)acrylamide]	0.1 to 5 µM	0.1 to 5 µM	> 30 µM
